These results are taken from BindingDB's records for doi:10.1074/jbc.M113.480210 (University of Copenhagen, 2013).

Holding throughout (assay): Two-electrode Voltage Clamp Electrophysiology
Holding throughout (conditions): pH 7.4; 25 °C
On the technique in general: In two-electrode clamp one electrode senses voltage and the other passes current.

The target in assay [1] is Glutamate receptor ionotropic, NMDA 2C (Rat, UniProt Q00961+Q62683). Here is the method: (§1) Two-electrode voltage clamp (TEVC) recordings were performed on Xenopus oocytes at room temperature 3-6 days postinjection using an OC-725C TEVC amplifier (Warner Instruments, Hamden, CT). […] Voltage and current electrodes were filled with 0.3 and 3 M KCl, respectively. During recordings, oocytes were placed in a recording chamber and perfused with the extracellular recording solution comprised of 90 mM NaCl, 1 mM KCl, 10 mM HEPES, 0.5 mM BaCl2, and 0.01 mM EDTA (pH 7.4 with NaOH). Current responses were recorded at a holding potential of -40 and -60 mV for GluN1/N2 and GluN1/N3 receptors, respectively. Compounds were dissolved in extracellular recording solution and applied to the oocyte by gravity-driven perfusion using a computer-controlled 8-modular valve positioner (Digital MVP, Hamilton, Reno, NV).

For assay [2], the target named is Glutamate receptor ionotropic, NMDA 2B (Rat, UniProt Q00960+Q62683). Here is the method:
as §1

Another assay has as its target Glutamate receptor 1 (Rattus norvegicus, UniProt P19490). Here is the method: as §1
The target in assay [3] is Glutamate receptor ionotropic, NMDA 2A (Rat, UniProt Q00959+Q62683). Here is the method:
as §1

The target in assay [4] is Glutamate receptor ionotropic, NMDA 2D (Rat, UniProt Q62645+Q62683). How it is done: as §1
For assay [5], the target named is Glutamate receptor ionotropic, NMDA 1 [F484A,T518L]/3B (Rattus norvegicus, UniProt P35439+Q8VHN2, F484A/T518L). Here is the method:
as §1

For assay [6], the target named is Glutamate receptor ionotropic, NMDA 1 [F484A,T518L]/3A (Rattus norvegicus, UniProt P35439+Q9R1M7, F484A/T518L). Here is the method:
as §1

The structures appear in SMILES notation.

Glutamate receptor ionotropic, NMDA 2A, sequence (Q00959 whole entry, other chains not shown): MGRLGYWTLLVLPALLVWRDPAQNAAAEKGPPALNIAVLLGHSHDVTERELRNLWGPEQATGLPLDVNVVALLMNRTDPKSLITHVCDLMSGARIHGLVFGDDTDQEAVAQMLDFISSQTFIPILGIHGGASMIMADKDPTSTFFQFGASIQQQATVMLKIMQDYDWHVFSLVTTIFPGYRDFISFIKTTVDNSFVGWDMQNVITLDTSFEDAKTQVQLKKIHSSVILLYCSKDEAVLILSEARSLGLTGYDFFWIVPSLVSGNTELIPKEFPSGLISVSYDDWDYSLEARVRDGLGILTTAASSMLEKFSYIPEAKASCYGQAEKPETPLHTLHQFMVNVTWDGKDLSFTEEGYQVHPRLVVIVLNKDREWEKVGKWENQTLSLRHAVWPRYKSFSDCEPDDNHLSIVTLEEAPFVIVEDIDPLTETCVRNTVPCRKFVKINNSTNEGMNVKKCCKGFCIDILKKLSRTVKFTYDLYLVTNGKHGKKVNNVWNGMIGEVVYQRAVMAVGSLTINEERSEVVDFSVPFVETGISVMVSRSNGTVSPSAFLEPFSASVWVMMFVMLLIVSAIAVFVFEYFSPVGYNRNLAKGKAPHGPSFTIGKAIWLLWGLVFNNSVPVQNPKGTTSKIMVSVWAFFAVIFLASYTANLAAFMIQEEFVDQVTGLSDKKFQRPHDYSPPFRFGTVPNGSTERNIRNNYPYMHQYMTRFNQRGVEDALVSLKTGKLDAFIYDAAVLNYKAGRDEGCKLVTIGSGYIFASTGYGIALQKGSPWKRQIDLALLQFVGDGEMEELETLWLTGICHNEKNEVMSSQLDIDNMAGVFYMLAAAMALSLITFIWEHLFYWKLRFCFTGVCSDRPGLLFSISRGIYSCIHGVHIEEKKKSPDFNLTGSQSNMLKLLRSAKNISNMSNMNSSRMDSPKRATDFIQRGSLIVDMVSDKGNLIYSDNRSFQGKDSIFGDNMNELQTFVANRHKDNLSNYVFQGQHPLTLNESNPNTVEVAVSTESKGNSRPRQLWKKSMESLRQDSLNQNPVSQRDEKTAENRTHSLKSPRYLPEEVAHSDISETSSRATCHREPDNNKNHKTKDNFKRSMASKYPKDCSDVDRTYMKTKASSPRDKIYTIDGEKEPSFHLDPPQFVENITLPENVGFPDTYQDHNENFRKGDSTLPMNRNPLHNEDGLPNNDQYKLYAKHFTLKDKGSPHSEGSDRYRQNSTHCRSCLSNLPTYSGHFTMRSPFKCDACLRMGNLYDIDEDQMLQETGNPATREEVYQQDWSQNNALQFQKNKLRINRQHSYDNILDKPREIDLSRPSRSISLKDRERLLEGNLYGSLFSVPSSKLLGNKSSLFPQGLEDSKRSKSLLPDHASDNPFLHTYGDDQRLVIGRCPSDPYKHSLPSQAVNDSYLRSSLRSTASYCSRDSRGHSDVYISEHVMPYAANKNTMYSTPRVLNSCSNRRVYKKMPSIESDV
Glutamate receptor ionotropic, NMDA 1 [F484A,T518L]/3A, sequence (Q9R1M7 24-1135 limits assumed, other chains not shown): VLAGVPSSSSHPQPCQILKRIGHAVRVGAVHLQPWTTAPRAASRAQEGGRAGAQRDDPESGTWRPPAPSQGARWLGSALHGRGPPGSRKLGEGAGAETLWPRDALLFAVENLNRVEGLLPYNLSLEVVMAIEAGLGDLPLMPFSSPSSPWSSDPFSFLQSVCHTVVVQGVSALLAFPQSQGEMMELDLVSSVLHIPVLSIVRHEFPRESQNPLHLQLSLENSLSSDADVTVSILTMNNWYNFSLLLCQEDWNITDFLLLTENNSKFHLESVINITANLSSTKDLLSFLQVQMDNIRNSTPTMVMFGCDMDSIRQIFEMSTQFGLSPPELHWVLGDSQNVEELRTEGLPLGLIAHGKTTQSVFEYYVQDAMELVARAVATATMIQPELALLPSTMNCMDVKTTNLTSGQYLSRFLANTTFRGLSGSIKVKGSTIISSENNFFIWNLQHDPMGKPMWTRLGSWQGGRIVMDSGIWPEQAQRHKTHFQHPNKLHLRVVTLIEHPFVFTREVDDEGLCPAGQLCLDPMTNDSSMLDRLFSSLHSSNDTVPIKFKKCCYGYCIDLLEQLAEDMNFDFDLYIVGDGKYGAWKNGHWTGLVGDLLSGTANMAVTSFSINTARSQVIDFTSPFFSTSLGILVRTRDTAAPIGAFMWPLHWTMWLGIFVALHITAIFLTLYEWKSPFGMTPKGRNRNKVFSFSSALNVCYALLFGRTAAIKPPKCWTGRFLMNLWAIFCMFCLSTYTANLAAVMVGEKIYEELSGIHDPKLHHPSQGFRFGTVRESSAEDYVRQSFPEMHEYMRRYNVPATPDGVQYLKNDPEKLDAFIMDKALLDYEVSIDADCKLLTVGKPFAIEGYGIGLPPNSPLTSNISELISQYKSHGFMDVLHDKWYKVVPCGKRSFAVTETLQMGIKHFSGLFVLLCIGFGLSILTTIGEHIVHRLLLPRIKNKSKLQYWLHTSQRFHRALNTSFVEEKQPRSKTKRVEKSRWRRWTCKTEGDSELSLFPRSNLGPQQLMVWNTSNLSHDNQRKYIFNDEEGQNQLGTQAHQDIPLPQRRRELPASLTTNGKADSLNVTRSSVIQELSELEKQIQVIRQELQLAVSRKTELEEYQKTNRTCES
Glutamate receptor ionotropic, NMDA 1 [F484A,T518L]/3B, sequence (Q8VHN2 25-1002 limits assumed, other chains not shown): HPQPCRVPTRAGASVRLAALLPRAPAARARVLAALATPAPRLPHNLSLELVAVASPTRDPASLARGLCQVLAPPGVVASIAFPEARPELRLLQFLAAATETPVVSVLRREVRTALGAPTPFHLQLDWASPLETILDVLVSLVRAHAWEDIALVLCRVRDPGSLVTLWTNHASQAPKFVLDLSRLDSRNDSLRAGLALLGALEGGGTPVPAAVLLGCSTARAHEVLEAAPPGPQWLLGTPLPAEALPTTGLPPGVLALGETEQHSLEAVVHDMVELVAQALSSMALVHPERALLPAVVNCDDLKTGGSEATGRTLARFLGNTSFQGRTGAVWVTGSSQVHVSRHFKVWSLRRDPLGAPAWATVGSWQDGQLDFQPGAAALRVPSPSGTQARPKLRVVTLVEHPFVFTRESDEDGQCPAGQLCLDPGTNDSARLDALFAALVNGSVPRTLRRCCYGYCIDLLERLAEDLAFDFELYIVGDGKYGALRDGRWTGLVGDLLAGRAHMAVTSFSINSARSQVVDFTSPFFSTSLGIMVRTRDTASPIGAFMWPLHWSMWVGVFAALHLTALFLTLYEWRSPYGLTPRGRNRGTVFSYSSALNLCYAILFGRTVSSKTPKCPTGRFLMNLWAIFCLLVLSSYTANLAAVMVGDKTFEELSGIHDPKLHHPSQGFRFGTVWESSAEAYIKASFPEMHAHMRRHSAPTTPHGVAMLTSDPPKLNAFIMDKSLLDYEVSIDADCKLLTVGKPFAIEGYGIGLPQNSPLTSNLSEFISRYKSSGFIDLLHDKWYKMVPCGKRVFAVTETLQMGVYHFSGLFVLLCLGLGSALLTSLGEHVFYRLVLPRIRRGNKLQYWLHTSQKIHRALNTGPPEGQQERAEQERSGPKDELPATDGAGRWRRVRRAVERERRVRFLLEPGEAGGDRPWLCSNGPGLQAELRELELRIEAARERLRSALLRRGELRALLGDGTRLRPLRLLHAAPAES
Glutamate receptor 1, sequence (P19490 whole entry): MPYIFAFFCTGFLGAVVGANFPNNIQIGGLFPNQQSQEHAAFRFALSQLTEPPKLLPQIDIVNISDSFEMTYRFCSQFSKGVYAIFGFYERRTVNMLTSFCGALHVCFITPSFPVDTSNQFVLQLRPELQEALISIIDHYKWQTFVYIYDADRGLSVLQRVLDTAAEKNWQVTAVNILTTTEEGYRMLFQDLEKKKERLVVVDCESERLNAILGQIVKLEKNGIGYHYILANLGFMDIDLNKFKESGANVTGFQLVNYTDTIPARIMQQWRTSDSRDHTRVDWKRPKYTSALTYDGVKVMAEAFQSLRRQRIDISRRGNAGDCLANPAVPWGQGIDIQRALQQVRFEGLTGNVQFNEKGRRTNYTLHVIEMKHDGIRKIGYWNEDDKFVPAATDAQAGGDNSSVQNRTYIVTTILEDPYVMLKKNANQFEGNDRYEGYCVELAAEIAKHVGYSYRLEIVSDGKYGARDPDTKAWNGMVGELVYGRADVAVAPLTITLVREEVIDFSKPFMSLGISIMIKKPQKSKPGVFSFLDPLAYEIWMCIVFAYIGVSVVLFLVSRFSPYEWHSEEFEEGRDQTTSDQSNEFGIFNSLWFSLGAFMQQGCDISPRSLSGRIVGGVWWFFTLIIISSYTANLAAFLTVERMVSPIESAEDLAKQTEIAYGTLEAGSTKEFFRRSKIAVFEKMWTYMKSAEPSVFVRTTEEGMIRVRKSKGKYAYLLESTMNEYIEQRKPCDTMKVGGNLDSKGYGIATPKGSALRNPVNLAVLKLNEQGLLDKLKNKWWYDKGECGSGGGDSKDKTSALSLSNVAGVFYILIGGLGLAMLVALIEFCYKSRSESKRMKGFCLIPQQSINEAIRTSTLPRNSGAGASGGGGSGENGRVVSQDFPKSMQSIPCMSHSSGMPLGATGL

`O=c1[nH]c2ccccc2n2c(S)nnc12` [1-thioxo-1,2-dihydro-[1,2,4]triazolo[4,3-a]-quinoxalin-4(5H)-one]: the Ki is more than 800 nM in assay [1]; more than 1300 nM in assay [2]; more than 180000 nM at Glutamate receptor 1; 560 nM in assay [3]; more than 300 nM in assay [4]. The IC50 at Glutamate receptor 1 is more than 300000 nM; in assay [3], 770 nM.

Regarding `O=C(O)c1cc(O)c2c(Cl)cc(Cl)cc2n1` [5,7-Dichlorokynurenic acid (5,7-DCKA)], the IC50 was more than 300000 nM in assay [5], 97000 nM in assay [6] and 92 nM in assay [3]. The Ki in assay [5] is more than 150000 nM; in assay [6], 35000 nM; in assay [3], 65 nM.

In general, Ki refers to the equilibrium dissociation constant of an inhibitor or competing ligand from its target. The low end stands for a stronger hold on the target, the high end for a looser hold on the target. As a reminder, the IC50 is the point on the concentration scale where inhibition reaches its midpoint. A low value points to inhibition by little substance.
